Assays:
[1] = Toxicity against human Osteogenic sarcoma (Hos)cells; conditions: read-out: LD50 (the source's name)
HOS = test: Effective concentration required to inhibit growth of sub clone Hos colR cells; type: functional, cell-based; conditions: Homo sapiens

Structure (SMILES) | CC50 [1] | EC50 (HOS)
O=C(N[C@H]1CCc2cc(O)c(O)c(O)c2-c2ccc(=O)c(O)cc21)C(F)(F)F | 14 µM | 26 µM
O=C(N[C@H]1CCc2cc(O)c(O)c(O)c2-c2ccc(=O)c(O)cc21)c1cc(O)c(O)c(O)c1 | 18 µM | 28 µM
